16 molecules from patent US8022102B2, “Unsaturated tetracyclic tetrahydrofuran derivatives” (Janssen Pharmaceutica, NV, priority 2004, dated 2011) can be followed below.

Data set [1] deals with T1, human Dopamine D2L receptor (Homo sapiens, UniProt P14416).
T1 construct: expressed in transfected cells; host or cells: CHO cells
The data set can be described thus: In vitro binding affinity for human D2L receptor ([3H]Spiperone). Conditions: human D2L receptor-transfected CHO cell membranes, [3H]Spiperone. The gist of the method: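 Membranes from CHO cells expressing human D2L incubated 30 min at 37° C. with [3H]Spiperone (diluted to 2 nmol/L before addition) in Tris-HCl buffer, pH 7.7, with NaCl, CaCl2, MgCl2, KCl. Non-specific binding defined with 10^−6 mol/l Butaclamol; filtered, scintillation-counted, competition curves fitted.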

Data set [2] concerns the target T2, human cloned 5-HT2A receptor (Homo sapiens, UniProt P28223).
T2 construct: expressed in transfected cells; host or cells: L929 cells
The data set can be described thus: In vitro binding affinity for 5-HT2A receptor (radioligand binding). Conditions: human cloned 5-HT2A receptor, radioligand binding. A digest of the protocol: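 Competition binding used human cloned 5-HT2A receptor expressed in L929 cells with [^125I]R91150 as radioligand, incubated with varying test-compound concentrations to equilibrium. Bound and free radioactivity were separated and receptor-bound activity counted.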

Data set [3] addresses T3, human cloned 5-HT2C receptor (Homo sapiens, UniProt P28335).
T3 construct: expressed in transfected cells; host or cells: CHO cells
T3 sequence (P28335 33-458): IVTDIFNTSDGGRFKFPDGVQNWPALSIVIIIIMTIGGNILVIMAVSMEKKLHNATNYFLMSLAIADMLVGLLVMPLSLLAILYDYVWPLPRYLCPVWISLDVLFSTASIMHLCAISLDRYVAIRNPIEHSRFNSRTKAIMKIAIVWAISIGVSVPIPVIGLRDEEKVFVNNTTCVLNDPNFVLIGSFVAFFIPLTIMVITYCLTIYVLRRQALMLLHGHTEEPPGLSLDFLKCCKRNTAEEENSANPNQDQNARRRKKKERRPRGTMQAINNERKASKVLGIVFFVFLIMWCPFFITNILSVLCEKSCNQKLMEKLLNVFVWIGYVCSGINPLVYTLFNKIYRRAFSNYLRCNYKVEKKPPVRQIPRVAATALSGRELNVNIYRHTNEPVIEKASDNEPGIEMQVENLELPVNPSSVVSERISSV
The data set can be described thus: In vitro binding affinity for 5-HT2C receptor (radioligand binding). The conditions noted are these: human cloned 5-HT2C receptor, radioligand binding. The gist of the method:
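Competition binding: test compound at various concentrations incubated with receptor preparation and radioligand to equilibrium. Receptor-bound radioactivity was separated from free and counted, with inhibition of radioligand binding reflecting affinity.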

Another data set addresses T4, NET (Rattus norvegicus, UniProt Q9WTR4).
T4 construct: Cortex from rat brain was collected and homogenised; from tissue; host or cells: rat brain cortex
The data set can be described thus: In vitro determination of NET reuptake inhibition ([3H]Nixosetine binding, rat brain cortex). The conditions noted are these: rat brain cortex, [3H]Nixosetine. On the procedure:
Cortex from rat brain was collected and homogenised using an Ultra-Turrax T25 and a Dual homogeniser in ice-cold homogenising buffer containing Tris, NaCl and KCl (50 mM, 120 mM and 5 mM, respectively, pH 7.4) prior to dilution to an appropriate protein concentration optimised for specific and non-specific binding. […] Membrane-bound activity was detected by filtration through a Packard Filtermate harvester onto GF/B Unifilterplates, washed with ice-cold Tris-HCl buffer, containing NaCl and KCl (50 mM, 120 mM and 4 mM; pH 7.4; 6×0.5 ml). Filters were allowed to dry for 24 h before adding scintillation fluid. Scintillation fluid was allowed to saturate filters for 24 h before counting in a Topcount scintillation counter. Percentage specific bound and competition binding curves were calculated using S-Plus software (Insightful).

Setting [4] is: read-out: NET Reuptake Inhibition (converted).

Where a name gives a salt, the structure may show the parent alone. Read-outs that look alike come from different tables or passages of the source.

Usually melting point stands for the temperature of the solid-liquid transition.

T1 sequence (P14416 whole entry): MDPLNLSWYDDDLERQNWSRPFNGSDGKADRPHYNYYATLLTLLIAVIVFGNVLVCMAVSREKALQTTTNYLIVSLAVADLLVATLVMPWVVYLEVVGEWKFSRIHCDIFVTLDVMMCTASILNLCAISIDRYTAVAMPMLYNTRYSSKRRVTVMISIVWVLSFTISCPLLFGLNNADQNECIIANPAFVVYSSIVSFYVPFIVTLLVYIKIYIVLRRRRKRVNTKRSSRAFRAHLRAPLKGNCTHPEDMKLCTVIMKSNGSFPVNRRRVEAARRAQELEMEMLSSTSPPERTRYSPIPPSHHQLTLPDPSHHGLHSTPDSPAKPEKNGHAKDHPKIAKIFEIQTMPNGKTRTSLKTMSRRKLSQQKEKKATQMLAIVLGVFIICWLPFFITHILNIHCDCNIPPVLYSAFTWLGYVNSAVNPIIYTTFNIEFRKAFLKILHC
T2 sequence (P28223 whole entry): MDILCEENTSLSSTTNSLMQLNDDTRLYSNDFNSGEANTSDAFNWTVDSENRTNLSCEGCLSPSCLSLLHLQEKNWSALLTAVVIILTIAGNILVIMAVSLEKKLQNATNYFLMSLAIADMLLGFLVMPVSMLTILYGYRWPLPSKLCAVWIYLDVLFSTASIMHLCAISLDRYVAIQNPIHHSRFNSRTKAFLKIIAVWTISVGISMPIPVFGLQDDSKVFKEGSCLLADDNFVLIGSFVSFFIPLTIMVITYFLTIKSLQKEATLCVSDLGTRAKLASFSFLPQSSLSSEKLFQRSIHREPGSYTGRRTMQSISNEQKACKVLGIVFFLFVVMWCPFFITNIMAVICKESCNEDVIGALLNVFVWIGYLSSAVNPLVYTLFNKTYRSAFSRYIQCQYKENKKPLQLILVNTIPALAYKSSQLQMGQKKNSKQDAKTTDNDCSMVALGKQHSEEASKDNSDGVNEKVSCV
T4 sequence (Q9WTR4 1-597): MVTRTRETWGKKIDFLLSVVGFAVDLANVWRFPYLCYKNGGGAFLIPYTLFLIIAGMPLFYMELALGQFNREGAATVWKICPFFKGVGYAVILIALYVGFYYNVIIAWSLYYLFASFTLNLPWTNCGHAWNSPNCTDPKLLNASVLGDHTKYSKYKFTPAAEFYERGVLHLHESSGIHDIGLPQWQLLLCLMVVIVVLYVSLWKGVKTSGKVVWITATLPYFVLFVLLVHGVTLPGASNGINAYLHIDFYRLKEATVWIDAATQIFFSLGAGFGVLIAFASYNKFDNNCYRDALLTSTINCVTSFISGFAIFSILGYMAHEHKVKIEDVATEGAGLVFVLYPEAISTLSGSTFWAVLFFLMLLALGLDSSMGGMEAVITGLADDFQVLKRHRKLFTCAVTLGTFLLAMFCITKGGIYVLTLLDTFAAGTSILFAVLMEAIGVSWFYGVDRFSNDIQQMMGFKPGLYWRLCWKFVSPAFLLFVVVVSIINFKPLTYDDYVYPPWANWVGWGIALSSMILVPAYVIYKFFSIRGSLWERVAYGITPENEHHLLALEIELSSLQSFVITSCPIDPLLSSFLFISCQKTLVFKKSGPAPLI

Molecule `CCNCC1CC2=C(O1)c1cc(F)ccc1Sc1ccccc12` (centres unmarked) (as salt: oxalate) [Compound 18] showed a melting point of 240.7 °C.

Molecule `CN(CC(=O)NS(C)(=O)=O)C[C@H]1CC2=C(O1)c1cc(F)ccc1Cc1ccccc12` [Compound 120] came in with a melting point of 88.5 °C.

`CN(CC(=O)O)C[C@H]1CC2=C(O1)c1cc(F)ccc1Cc1ccccc12` [Compound 107] came in with a melting point of 194.7 °C. Further, the IC50 in data set [1] (read-out: h-D2L (converted)) was 3980 nM. Also, in data set [2] (read-out: h-5HT2A (converted)), the IC50 is 10 nM. For the same molecule, the IC50 in data set [3] (read-out: h-5HT2C (converted)) was 7.94 nM.

In turn, `CN(C)CC1CC2=C(O1)c1ccsc1Cc1ccccc12` (centres unmarked) [Compound 131] returned a melting point of 174 to 176 °C. Moreover, the IC50 in data set [1] (read-out: h-D2L (converted)) is 200 nM. In addition, the IC50 in data set [2] (read-out: h-5HT2A (converted)) was 39.8 nM. The IC50 in data set [3] (read-out: h-5HT2C (converted)) was 7.94 nM. In addition, at NET (setting [4]), the IC50 was 794 nM.

Turning to `CN(C)CC1CC2=C(O1)c1ccccc1Cc1ccccc12` (centres unmarked) (as salt: oxalate) [Compound 22], the melting point is 172.8 °C.

Turning to `CN(CCC(=O)O)C[C@H]1CC2=C(O1)c1cc(F)ccc1Cc1ccccc12` [Compound 108], the IC50 is 3980 nM in data set [1] (read-out: h-D2L (converted)), 12.6 nM in data set [2] (read-out: h-5HT2A (converted)), 12.6 nM in data set [3] (read-out: h-5HT2C (converted)) and 398 nM on NET (setting [4]).

In the case of `Cc1ccc(S(=O)(=O)N2CCN(CC3CC4=C(O3)c3cc(F)ccc3Oc3ccccc34)CC2)cc1` (centres unmarked) [Compound 50], the IC50 is 2000 nM in data set [1] (read-out: h-D2L (converted)), 200 nM in data set [2] (read-out: h-5HT2A (converted)), 316 nM in data set [3] (read-out: h-5HT2C (converted)) and 1580 nM at NET (setting [4]).

Consider `O=C(Oc1ccccc1)N1CCN(CC2CC3=C(O2)c2cc(F)ccc2Oc2ccccc23)CC1` (centres unmarked) [Compound 66], for which the IC50 in data set [1] (h-D2L) is 794 nM; in data set [2] (h-5HT2A), 126 nM; in data set [3] (h-5HT2C), 316 nM; at NET (NET Reuptake Inhibition) it was 1260 nM.

As for `CN(C/C=C/C(=O)O)C[C@H]1CC2=C(O1)c1cc(F)ccc1Cc1ccccc12` [Compound 109], the IC50 is 3160 nM in data set [1] (read-out: h-D2L (converted)), 15.8 nM in data set [2] (read-out: h-5HT2A (converted)), 12.6 nM in data set [3] (read-out: h-5HT2C (converted)) and 398 nM on NET (setting [4]).

On to `CN(C)CC1CC2=C(O1)c1ccccc1N(C)c1ccccc12` (centres unmarked) [Compound 29], for which the IC50 is 6310 nM in data set [1] (read-out: h-D2L (converted)), 316 nM in data set [2] (read-out: h-5HT2A (converted)), 126 nM in data set [3] (read-out: h-5HT2C (converted)) and 79.4 nM at NET (setting [4]).

For the molecule `CCCn1c2c(c3ccccc31)C1=C(CC(CN(C)C)O1)c1ccccc1S2` (centres unmarked) [Compound 94], the IC50 was 1000 nM in data set [1] (read-out: h-D2L (converted)), 126 nM in data set [2] (read-out: h-5HT2A (converted)), 39.8 nM in data set [3] (read-out: h-5HT2C (converted)) and 1260 nM at NET (setting [4]).

As to `CNC[C@H]1CC2=C(O1)c1cc(F)ccc1Cc1ccccc12` [Compound 3], the IC50 in data set [1] (read-out: h-D2L (converted)) was 398 nM; in data set [2] (read-out: h-5HT2A (converted)), 6.31 nM; in data set [3] (read-out: h-5HT2C (converted)), 6.31 nM; at NET (setting [4]), 15.8 nM.

Consider `O=C(c1ccccc1)N1CCN(CC2CC3=C(O2)c2cc(F)ccc2Oc2ccccc23)CC1` (centres unmarked) [Compound 72], for which the IC50 in data set [1] (read-out: h-D2L (converted)) is 398 nM; in data set [2] (read-out: h-5HT2A (converted)), 25.1 nM; in data set [3] (read-out: h-5HT2C (converted)) it was 63.1 nM; on NET (setting [4]), 6310 nM.

On to `O=C(c1ccccc1)N1CCN(CC2CC3=C(O2)c2cc(F)ccc2Cc2ccccc23)CC1` (centres unmarked) [Compound 71], for which the IC50 is 126 nM in data set [1] (read-out: h-D2L (converted)), 6.31 nM in data set [2] (read-out: h-5HT2A (converted)), 15.8 nM in data set [3] (read-out: h-5HT2C (converted)) and 5010 nM at NET (setting [4]).

In the case of `C=C1c2ccccc2C2=C(OC(CNC)C2)c2ccccc21` (centres unmarked) [Compound 11], the IC50 in data set [1] (read-out: h-D2L (converted)) is 1580 nM; in data set [2] (read-out: h-5HT2A (converted)), 39.8 nM; in data set [3] (read-out: h-5HT2C (converted)), 20 nM; on NET (setting [4]), 25.1 nM.

Consider `COc1ccc(OC(=O)N2CCN(CC3CC4=C(O3)c3cc(F)ccc3Cc3ccccc34)CC2)cc1` (centres unmarked) [Compound 67], for which the IC50 in data set [1] (h-D2L) is 398 nM; in data set [2] (h-5HT2A) it was 20 nM; in data set [3] (h-5HT2C), 50.1 nM; at NET (NET Reuptake Inhibition), 3160 nM.
